The values that follow come from ChEMBL document CHEMBL1201862, “PubChem BioAssay data set” (2004).

The structures appear in SMILES notation.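 A five-concentration, 48-hour dose response in 96-well plates underlies each endpoint, interpolated linearly between surrounding concentrations. GI50 = concentration required for 50% inhibition of growth.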 Activity calls are given as the source filed them. No stated cut-off is given here; in the data, active = GI50 up to about 1.1 µM and inactive = higher.

Some test systems named below: OVCAR-8; HT-29; SNB-19; Malme-3M; HOP-92; NCI-H460; UACC-62; SK-MEL-5; SW-620; K562; SF-268; PC-3; LOX IMVI; A549; 786-0; SNB-75; M14; NCI-H226; KM12.
What all share (assay): NCI-60 cell line screen, 48 h

In the case of `N=c1c2ccccc2nc2oc3ccccc3n12`, the GI50 in the test on OVCAR-8 was 37.5 µM (inactive); in the test on HT-29, > 100 µM (inactive); with SNB-19, 25.5 µM (inactive); in the test with Malme-3M, 41.1 µM (inactive); in the test on HOP-92 it was 26.5 µM (inactive); in the test on NCI-H460, > 10 µM (inactive). Besides, the GI50 was 28.6 µM (inactive) with UACC-62; 15.5 µM (inactive) in the test with SK-MEL-5; 93.5 µM (inactive) with SW-620; > 100 µM (inactive) in the test with K562; 14.9 µM (inactive) with SF-268; 85.1 µM (inactive) with PC-3. The figures for the GI50 in the test with LOX IMVI, in the test with A549 and with 786-0 were 53.8 µM (inactive), 33.8 µM (inactive) and > 10 µM (inactive), respectively.

For `O=[N+]([O-])c1ccccc1[S+]([O-])c1ccccc1` (stereo not drawn), the GI50 in the test with OVCAR-8 was > 100 µM (inactive); in the test with SNB-75, 22.1 µM (inactive); with HT-29 it was 62.7 µM (inactive); in the test on SNB-19, 87.3 µM (inactive); in the test with Malme-3M, > 100 µM (inactive); in the test on HOP-92 it was 71 µM (inactive). In addition, the GI50 in the test with NCI-H460 is 53 µM (inactive); in the test on UACC-62, > 100 µM (inactive); in the test on SK-MEL-5 it was 36.8 µM (inactive); in the test on SW-620 it was > 100 µM (inactive); with K562, 35.1 µM (inactive); in the test on SF-268 it was 77.6 µM (inactive). The GI50 is > 100 µM (inactive) in the test with M14; 21.1 µM (inactive) in the test with LOX IMVI; 49.9 µM (inactive) in the test on NCI-H226; 52.8 µM (inactive) with A549; > 100 µM (inactive) with 786-0; 87.9 µM (inactive) in the test on KM12.

Consider `CSc1nc2c(c(O)c(C)c(=O)n2C2OC(COC(C)=O)C(OC(C)=O)C(OC(C)=O)C2OC(C)=O)c(=O)n1C` (stereo not drawn), for which the GI50 with OVCAR-8, in the test on SNB-75, with HT-29, with SNB-19, in the test with Malme-3M and in the test on HOP-92 was > 100 µM (inactive) each time. The GI50 in the test with NCI-H460, with UACC-62, in the test with SK-MEL-5, in the test with SW-620, with K562 and in the test with SF-268 was > 100 µM (inactive) each time. The GI50 in the test on M14, in the test on LOX IMVI, with NCI-H226, with A549, in the test on 786-0 and in the test with KM12 was > 100 µM (inactive) throughout.

`CN(/N=C/C=N/N(C)C1=NCCCN1)C1=NCCCN1`: the GI50 in the test with OVCAR-8, in the test on SNB-75, in the test on HT-29, in the test on SNB-19, in the test with Malme-3M and with HOP-92 was > 100 µM (inactive) throughout. Besides, the GI50 with NCI-H460, in the test on UACC-62, in the test with SK-MEL-5, with SW-620, in the test on K562 and in the test on SF-268 was > 100 µM (inactive) each time. Also, the GI50 in the test with PC-3, with M14, with LOX IMVI, in the test on NCI-H226, in the test on A549 and with 786-0 was > 100 µM (inactive) each time. In addition, in the test with KM12, the GI50 is > 100 µM (inactive).

On to `ON=C1CCC(c2ccccc2)CC1` (stereo not drawn), for which the GI50 in the test on OVCAR-8, in the test on SNB-75, with HT-29, in the test on SNB-19, in the test with Malme-3M and in the test with HOP-92 was > 100 µM (inactive) throughout. Besides, the GI50 in the test with NCI-H460, in the test on UACC-62, in the test with SK-MEL-5, with SW-620, in the test on K562 and with SF-268 was > 100 µM (inactive) in each case. Further, the GI50 in the test on M14, with LOX IMVI, in the test on NCI-H226, with A549, in the test with 786-0 and with KM12 was > 100 µM (inactive) in each case.

With `Nc1nc2ncn(CCO)c2c(=S)[nH]1`, the GI50 in the test with OVCAR-8, in the test with SNB-75, with HT-29, in the test with SNB-19, in the test with Malme-3M and in the test on HOP-92 was > 100 µM (inactive) each time. For the same compound, the GI50 in the test on NCI-H460, with UACC-62, in the test with SK-MEL-5, in the test on SW-620, in the test on K562 and with SF-268 was > 100 µM (inactive) each time. Further, the GI50 in the test on M14, with LOX IMVI, in the test with NCI-H226, in the test on A549, in the test with 786-0 and with KM12 was > 100 µM (inactive) in each case.

Take `O=[N+]([O-])c1c(/C=N/c2ccccc2)oc(-c2ccc3c(c2)OCO3)c1-c1ccc2c(c1)OCO2`: the GI50 in the test on OVCAR-8 was > 100 µM (inactive); in the test on SNB-75, 50.2 µM (inactive); in the test with HT-29 it was > 100 µM (inactive); with SNB-19 it was > 100 µM (inactive); in the test on Malme-3M it was > 100 µM (inactive); in the test on HOP-92, 65.6 µM (inactive). Besides, the GI50 in the test with NCI-H460, in the test on UACC-62, in the test on SK-MEL-5, in the test on SW-620, in the test on K562 and with SF-268 was > 100 µM (inactive) each time. In addition, the GI50 is > 100 µM (inactive) with M14; > 100 µM (inactive) with LOX IMVI; 48.8 µM (inactive) with NCI-H226; > 100 µM (inactive) in the test with A549; > 100 µM (inactive) in the test with 786-0; > 100 µM (inactive) with KM12.

Regarding `CN(C)P(=O)(Oc1occc1C(O)Cc1ccccc1)N(C)C` (stereo not drawn), the GI50 with OVCAR-8, with SNB-75, in the test on SNB-19, with Malme-3M, with NCI-H460 and with SK-MEL-5 was > 100 µM (inactive) in each case. For the same compound, the GI50 in the test on SW-620, in the test on SF-268, in the test with PC-3, in the test on M14, in the test with LOX IMVI and in the test with NCI-H226 was > 100 µM (inactive) each time. Further, the GI50 in the test with A549, in the test on 786-0 and in the test with KM12 was > 100 µM (inactive) in each case.

For `CC(C)C(=O)Nc1nc2[nH]cnc2c(=O)[nH]1`, the GI50 in the test on OVCAR-8, in the test on SNB-75, in the test on HT-29, with SNB-19, in the test on Malme-3M and in the test with HOP-92 was > 100 µM (inactive) throughout. Also, the GI50 in the test on NCI-H460, with UACC-62, with SK-MEL-5, in the test with SW-620, with K562 and with SF-268 was > 100 µM (inactive) throughout. Also, the GI50 in the test with M14, with LOX IMVI, in the test with NCI-H226, with A549, in the test with 786-0 and with KM12 was > 100 µM (inactive) each time.

Consider `COC(=O)c1cc2c(nc1C)-c1ccccc1OS2(=O)=O`, for which the GI50 with OVCAR-8 is 79.8 µM (inactive); in the test on SNB-75, 17.9 µM (inactive); in the test with HT-29, > 100 µM (inactive); in the test with SNB-19 it was 81.3 µM (inactive); with Malme-3M it was > 100 µM (inactive); with HOP-92, 24.6 µM (inactive). Further, the GI50 with NCI-H460 is > 100 µM (inactive); in the test on UACC-62, > 100 µM (inactive); in the test with SK-MEL-5, > 100 µM (inactive); in the test on SW-620 it was > 100 µM (inactive); in the test on K562, > 100 µM (inactive); in the test with SF-268, 45.5 µM (inactive). For the same compound, the GI50 in the test on M14 is > 100 µM (inactive); in the test with LOX IMVI it was > 100 µM (inactive); in the test on NCI-H226 it was > 100 µM (inactive); in the test on A549, > 100 µM (inactive); with 786-0, 70 µM (inactive); in the test on KM12, > 100 µM (inactive).

`O=C(O)COc1ccc(C(=O)/C(SS/C(C(=O)c2ccc(OCC(=O)O)c(Cl)c2Cl)=C2\C=C(c3ccc(Cl)cc3)SS2)=C2/C=C(c3ccc(Cl)cc3)SS2)c(Cl)c1Cl`: the GI50 is 5.85 µM (inactive) in the test on OVCAR-8; 11.1 µM (inactive) in the test with SNB-75; 34.5 µM (inactive) in the test on HT-29; 8.99 µM (inactive) in the test with SNB-19; 33.7 µM (inactive) in the test on Malme-3M; 4.22 µM (inactive) in the test with HOP-92. Also, the GI50 is 19.1 µM (inactive) in the test on NCI-H460; 9.51 µM (inactive) with UACC-62; 16.7 µM (inactive) in the test on SK-MEL-5; 0.435 µM (active) with SW-620; 2.43 µM (inactive) in the test on K562; 11.2 µM (inactive) with SF-268. In addition, the GI50 is 13.5 µM (inactive) in the test with M14; 3.93 µM (inactive) with LOX IMVI; 5.66 µM (inactive) with NCI-H226; 21.4 µM (inactive) with A549; 13.5 µM (inactive) in the test on 786-0; 16 µM (inactive) in the test with KM12.
